Test results reported in US20260166039A1 (SCHRÖDINGER, INC., priority 2022, published 2026).

What was measured:
[1] = test system: phosphorylation of Cdc2 Y15 (Wee1 substrate) in A427 cells; assay: Phosphorylated Cdc2 MSD Electrochemiluminescence Assay; format: cell-based; conditions: Homo sapiens, A-427, class symbols, read-out: A427 pCDC2 MSD IC50
Method in brief: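 A427 cells (RPMI 1640, 10% FBS) treated 20 h after plating with 3-fold serial compound dilutions, in duplicate, 37 °C, 5% CO2; total incubation 6 h. Lysate Cdc2 pY15 read by MSD electrochemiluminescence sandwich immunoassay; % remaining signal normalised to DMSO (high) and reference Wee1 inhibitor (low) controls.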

[2] = biological target: T1, Wee1 kinase domain (Homo sapiens, UniProt P30291); assay: Wee1 Kinase Biochemical Assay (ADP-Glo); conditions: class symbols; 1 nM Wee1 enzyme, 15 uM ATP, 4 hours at 25° C.
T1 construct: Wee1 kinase domain was purchased from Carna (catalog #05-177); purchased Carna 05-177
Method in brief: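 1 nM enzyme; 15 uM ATP; 2 ng/mL poly(Lys,Tyr 4:1); 40 mM Tris-HCl, 20 mM MgCl2, 0.1 mg/mL BSA, 2 mM DTT; 4 h, 25 °C; ADP-Glo; % inhibition vs DMSO and saturating positive-control wells.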

T1 sequence (P30291 299-569 limits assumed): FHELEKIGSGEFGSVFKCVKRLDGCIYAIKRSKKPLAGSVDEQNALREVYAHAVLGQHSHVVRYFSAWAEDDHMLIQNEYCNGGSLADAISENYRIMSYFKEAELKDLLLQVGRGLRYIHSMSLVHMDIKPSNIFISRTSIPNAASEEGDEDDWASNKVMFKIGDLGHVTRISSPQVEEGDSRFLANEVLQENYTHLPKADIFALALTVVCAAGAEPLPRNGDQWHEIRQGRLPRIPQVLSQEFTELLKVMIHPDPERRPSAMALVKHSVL

Compound | IC50 [1] | IC50 [2]
CC1(C)C[C@H]2N(c3ccc4c(n3)CCNC4)c3nc(Nc4ccc(N5CCOCC5)cc4)ncc3[C@@]2(C)CO1 (single isomer, unassigned) [Example 562] | 0.1 to 1 µM | < 0.01 µM
CC1(C)C[C@H]2N(c3ccc4c(n3)[C@](C)(N)CC4)c3nc(Nc4ccc(N5CCOCC5)cc4)ncc3[C@@]2(C)CO1 (single isomer, unassigned) [Example 564] | < 0.1 µM | < 0.01 µM
CC1(C)C[C@H]2N(c3ccc4c(n3)[C@@](C)(N)CC4)c3nc(Nc4ccc(N5CCOCC5)cc4)ncc3[C@@]2(C)CO1 (single isomer, unassigned) [Example 565] | 0.1 to 1 µM | < 0.01 µM
CC1(C)C[C@H]2N(c3cccc(C(C)(C)N)n3)c3nc(Nc4ccc(N5CCOCC5)cc4)ncc3[C@@]2(C)CO1 (single isomer, unassigned) [Example 567] | < 0.1 µM | < 0.01 µM
CN[C@]1(C)CCc2ccc(N3c4nc(Nc5ccc(N6CCOCC6)cc5)ncc4[C@@]4(C)COC(C)(C)C[C@@H]34)nc21 (single isomer, unassigned) [Example 569] | < 0.1 µM | < 0.01 µM
CNCc1cccc(N2c3nc(Nc4ccc(N5CCOCC5)cc4)ncc3[C@@]3(C)COCC[C@@H]23)n1 (single isomer, unassigned) [Example 572] | 0.1 to 1 µM | < 0.01 µM
CNC1(c2cccc(N3c4nc(Nc5ccc(C6CCN(C)CC6)c(C)c5)ncc4[C@]4(C)COC(C)(C)C[C@H]34)n2)CC1 (single isomer, unassigned) [Example 574] | 0.1 to 1 µM | 0.01 to 0.1 µM
CNC1(c2cccc(N3c4nc(Nc5ccc(C6CCN(C)CC6)c(C)c5)ncc4[C@@]4(C)COC(C)(C)C[C@@H]34)n2)CC1 (single isomer, unassigned) [Example 575] | < 0.1 µM | < 0.01 µM
CN1CCN(c2ccc(Nc3ncc4c(n3)N(c3cccc(N5CCOC5=O)n3)[C@@H]3CC(C)(C)OC[C@]43C)cc2)CC1 (single isomer, unassigned) [Example 577] | < 0.1 µM | < 0.01 µM
CN[C@@H](C)c1cccc(N2c3nc(Nc4ccc(N5C[C@H]6C[C@@H]5CO6)cc4)ncc3[C@]3(C)COC(C)(C)C[C@H]23)n1 (single isomer, unassigned) [Example 579] | 0.1 to 1 µM | < 0.01 µM
CN[C@@H](C)c1cccc(N2c3nc(Nc4ccc(N5C[C@@H]6C[C@H]5CO6)cc4)ncc3[C@@]3(C)COC(C)(C)C[C@@H]23)n1 (single isomer, unassigned) [Example 581] | 0.1 to 1 µM | < 0.01 µM

Further lines, results first:

IC50 [1] | IC50 [2] | Compound
0.1 to 1 µM | < 0.01 µM | C[C@H]1CCC(=O)N1c1cccc(N2c3nc(Nc4ccc(N5CCN(C)CC5)cc4)ncc3[C@@]3(C)COC(C)(C)C[C@@H]23)n1 (single isomer, unassigned) [Example 583]
0.1 to 1 µM | < 0.01 µM | Cc1cc(Nc2ncc3c(n2)N(c2cccc(C(=O)N(C)C)n2)[C@@H]2CC(C)(C)OC[C@]32C)ccc1C1CCN(C)CC1 (single isomer, unassigned) [Example 585]
0.1 to 1 µM | < 0.01 µM | CN1CCN(c2ccc(Nc3ncc4c(n3)N(c3cccc(N5CCCC5=O)n3)[C@@H]3CC(C)(C)OC[C@]43C)cc2)CC1 (single isomer, unassigned) [Example 587]
0.1 to 1 µM | < 0.01 µM | C[C@@H]1COC(=O)N1c1cccc(N2c3nc(Nc4ccc(N5CCN(C)CC5)cc4)ncc3[C@@]3(C)COC(C)(C)C[C@@H]23)n1 (single isomer, unassigned) [Example 589]
0.1 to 1 µM | < 0.01 µM | CN1CCC(c2ccc(Nc3ncc4c(n3)N(c3cccc(N5CCOC5=O)n3)[C@@H]3CC(C)(C)OC[C@]43C)cc2)CC1 (single isomer, unassigned) [Example 591]
0.1 to 1 µM | < 0.01 µM | CN1C[C@H]2C[C@@H]1CN2c1ccc(Nc2ncc3c(n2)N(c2cccc(N4CCOC4=O)n2)[C@@H]2CC(C)(C)OC[C@]32C)cc1 (single isomer, unassigned) [Example 593]
